Key:
Format in all cases: cell-based
[1] = test system: Human fibroblast; assay: Culture test with medium exchange every three days (Example 2), cell count; conditions: for Number of cells: Glutamic acid: 8 mM, average of three wells
Experimental: As the medium, the DMEM basal medium was used.
After cell culture, the cells were recovered using a 0.1% by weight trypsin/1 mM EDTA solution, and seeded on a 12-well plate (obtained from Corning Co., Ltd.), and cultured overnight at 37° C. in the presence of 5% CO2 using the above DMEM basal medium. […]
Note that the number of cells is an average of the numbers of cell counts in three wells, and the counts is measured by the following method.
(§1) After removing the culture supernatant of the cells by suction and washing the cells by using PBS, the cells were peeled off by using 0.1% trypsin/1 mM EDTA solution (FUJIFILM Wako Pure Chemical Corporation). The reaction of the releasing solution was stopped by adding the medium, and the cells were recovered. And then, the cell counts was conducted by using the Countess™ II Automated Cell Counter (Thermo Fisher Scientific).

[2] = test system: Human mesenchymal stem cell; assay: as above; conditions: for Number of cells: Glutamic acid: 8 mM, average of three wells
Experimental: (§2) Human mesenchymal stem cells (manufactured by Lonza, Catalog No. PT-5006) were cultured in a cell culture dish (100-mm culture dish, obtained from SANPLATEC CO., LTD.) coated with 10 μg/ml Fibronectin (Promocell) at 37° C. in the presence of 5% CO2, and used. As the medium, the DMEM basal medium was used.
(§3) After cell culture, the cells were recovered using a 0.1% by weight trypsin/1 mM EDTA solution, and seeded on a 12-well plate (obtained from Corning Co., Ltd.), and cultured overnight at 37° C. in the presence of 5% CO2 using the above DMEM basal medium.
(§4) The DMEM basal medium was replaced with the desired cell maintenance medium, and the cells were cultured (“Day 0 after culture”). No medium exchange was performed during the culture period.
The same culture test as in Example 1 was conducted except that the medium was exchanged every three days during the culture period.
Tables 1 to 2 indicate the number of cells for each culture day. […] Note that the number of cells is an average of the numbers of cell counts in three wells, and the counts is measured by the following method.
as §1

[3] = test system: Human mesenchymal stem cell; assay: as above; conditions: w/o Glc medium instead of w/Glc medium; Glutamic acid 8 mM; FIG. 3, Day 12
[4] = test system: Human fibroblasts; assay: Test for confirming cell proliferation inhibitory effect (Example 1), phase-contrast observation of cell state; conditions: Day 9, no medium exchange; for Cell state: number of dead cells and cell proliferation: 1 mM, 5 mM or 8 mM glutamic acid
Experimental: Human fibroblasts (Catalog No. CC-2511) were cultured in a gelatin-coated cell culture dish (100-mm culture dish, obtained from SANPLATEC CO., LTD.) at 37° C. in the presence of 5% CO2, and used. As the medium, the DMEM basal medium was used.
as §3, §4
(§5) Further, the same culture test as described above was conducted except that 1 mM, 5 mM or 8 mM of glutamic acid was added to the basal medium for cell culture.

[5] = test system: Human mesenchymal stem cells; assay: as above; conditions: Day 9, no medium exchange; for Cell state: number of dead cells and cell proliferation: 1 mM, 5 mM or 8 mM glutamic acid
Experimental: as §2, §3, §4, §5

[6] = glucose-free DMEM basal medium (w/o Glc)
[7] = xylose DMEM basal medium (w/Xy)

N[C@@H](CCC(=O)O)C(=O)O [Glutamic acid, glutamic acid]
Number of cells ([1]; Medium: w/G1c, Day 0): 0.07 ×10^5 cells/cm^2 | Number of cells ([1]; Medium: w/G1c, Day 6): 0.56 ×10^5 cells/cm^2 | Number of cells ([1]; Medium: w/G1c, Day 12): 1.46 ×10^5 cells/cm^2 | Number of cells ([1]; Medium: w/G1c, Day 18): 1.72 ×10^5 cells/cm^2 | Number of cells ([1]; Medium: w/Xy, Day 0): 0.07 ×10^5 cells/cm^2 | Number of cells ([1]; Medium: w/Xy, Day 6): 0.37 ×10^5 cells/cm^2 | Number of cells ([1]; Medium: w/Xy, Day 12): 1.13 ×10^5 cells/cm^2 | Number of cells ([1]; Medium: w/Xy, Day 18): 1.28 ×10^5 cells/cm^2 | Number of cells ([1]; Medium: w/o G1c, Day 0): 0.07 ×10^5 cells/cm^2 | Number of cells ([1]; Medium: w/o G1c, Day 6): 0.27 ×10^5 cells/cm^2 | Number of cells ([1]; Medium: w/o G1c, Day 12): 0.08 ×10^5 cells/cm^2 | Cell proliferation inhibition compared with the control test with w/Glc medium ([1]; w/Glc medium, Glutamic acid 8 mM, from Table 1): the cell proliferation was inhibited till 6 days after | Cell proliferation inhibitory effect ([1]; w/Xy medium instead of w/Glc medium, Glutamic acid 8 mM, from Table 1): the cell proliferation inhibitory effect was remarkable, and it was possible to inhibit the cell proliferation for a longer period | Number of cells and dead cells ([1]; w/o Glc medium instead of w/Glc medium, Glutamic acid 8 mM, from Table 1): the number of cells after 12 days was remarkably less, and the dead cells occurred | Number of cells ([2]; Medium: w/Glc, Day 0): 0.356 ×10^4 cells/cm^2 | Number of cells ([2]; Medium: w/Glc, Day 3): 1.12 ×10^4 cells/cm^2 | Number of cells ([2]; Medium: w/Glc, Day 6): 2.96 ×10^4 cells/cm^2 | Number of cells ([2]; Medium: w/Glc, Day 9): 3.23 ×10^4 cells/cm^2 | Number of cells ([2]; Medium: w/Glc, Day 12): 3.75 ×10^4 cells/cm^2 | Number of cells ([2]; Medium: w/Glc, Day 15): 4.46 ×10^4 cells/cm^2 | Number of cells ([2]; Medium: w/Glc, Day 18): 5.37 ×10^4 cells/cm^2 | Number of cells ([2]; Medium: w/Xy, Day 0): 0.356 ×10^4 cells/cm^2 | Number of cells ([2]; Medium: w/Xy, Day 3): 0.855 ×10^4 cells/cm^2 | Number of cells ([2]; Medium: w/Xy, Day 6): 0.998 ×10^4 cells/cm^2 | Number of cells ([2]; Medium: w/Xy, Day 9): 1.65 ×10^4 cells/cm^2 | Number of cells ([2]; Medium: w/Xy, Day 12): 1.87 ×10^4 cells/cm^2 | Number of cells ([2]; Medium: w/Xy, Day 15): 2.77 ×10^4 cells/cm^2 | Number of cells ([2]; Medium: w/Xy, Day 18): 3.90 ×10^4 cells/cm^2 | Number of cells ([2]; Medium: w/o Glc, Day 0): 0.356 ×10^4 cells/cm^2 | Number of cells ([2]; Medium: w/o Glc, Day 3): 0.591 ×10^4 cells/cm^2 | Number of cells ([2]; Medium: w/o Glc, Day 6): 0.662 ×10^4 cells/cm^2 | Number of cells ([2]; Medium: w/o Glc, Day 9): 1.06 ×10^4 cells/cm^2 | Number of cells ([2]; Medium: w/o Glc, Day 12): 1.04 ×10^4 cells/cm^2 | Number of cells ([2]; Medium: w/o Glc, Day 15): 1.50 ×10^4 cells/cm^2 | Number of cells ([2]; Medium: w/o Glc, Day 18): 1.58 ×10^4 cells/cm^2 | Cell proliferation inhibition compared with the control test with w/Glc medium ([2]; w/Glc medium, Glutamic acid 8 mM, from Table 2): it was possible to inhibit the cell proliferation till 18 days after | Cell proliferation inhibitory effect ([2]; w/Xy medium instead of w/Glc medium, Glutamic acid 8 mM, from Table 2): the cell proliferation inhibitory effect was remarkable | Condition of cells (whitening around cells) [3]: the ratio of whitening around cells ware large, and the conditions of cells deteriorated | Cell state: number of dead cells and cell proliferation [4, 6]: the number of dead cells decreased and cell proliferation was inhibited as the glutamic acid concentration increased | Dead cells observed ([4]; w/Xy, glutamic acid concentration 1 to 8 mM): dead cells were hardly observed | Cell state: number of dead cells and cell proliferation [4, 7]: the number of dead cells decreased and cell proliferation was inhibited as the glutamic acid concentration increased | Cell state: number of dead cells and cell proliferation [5, 6]: the number of dead cells decreased and cell proliferation was inhibited as the glutamic acid concentration increased | Dead cells observed ([5]; w/Xy, glutamic acid concentration 5 to 8 mM): dead cells were hardly observed | Cell state: number of dead cells and cell proliferation [5, 7]: the number of dead cells decreased and cell proliferation was inhibited as the glutamic acid concentration increased

From US20220348878A1, “CELL PROLIFERATION INHIBITOR” (BOURBON CORPORATION, priority 2019, published 2022)
